The text below walks through data of ChEMBL document CHEMBL1201862, “PubChem BioAssay data set” (2004).

SMILES strings stand for the structures.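 Where inhibition never reached the appropriate level, the endpoint shown equals the highest concentration tested. Otherwise, values were interpolated linearly from a five-concentration, 48-hour dose response in 96-well plates. The concentration for 50% growth inhibition is given as GI50.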 Active and inactive are the calls of the source. No stated cut-off is given here; in the data, active = GI50 up to about 1.1 µM and inactive = higher.

Among the test systems are MDA-N; PC-3; SK-MEL-5; K562; SK-MEL-2; KM12; CCRF-CEM; SK-OV-3; RXF 393; MDA-MB-435; NCI-H460; A498; Hs-578T; M19-MEL; RPMI-8226; SW-620; SF-268; TK-10; M14; DU-145.
What all share (test): DTP human tumour cell line panel, 48 h

For the compound `C=C(C)c1nc(Oc2ccccc2)nc(Oc2ccccc2)n1`, the GI50 in the assay with MDA-N was 3.5 µM (inactive); in the assay with PC-3 it was 14.6 µM (inactive); in the assay on SK-MEL-5, 13.7 µM (inactive); with K562, 2.23 µM (inactive); in the assay on SK-MEL-2, 2.21 µM (inactive); in the assay with KM12, 3.09 µM (inactive). Also, the GI50 in the assay with CCRF-CEM was 2.54 µM (inactive); in the assay with SK-OV-3 it was 17.6 µM (inactive); in the assay with RXF 393, 2.4 µM (inactive); in the assay with MDA-MB-435 it was 10.3 µM (inactive); with NCI-H460, 9.04 µM (inactive); in the assay with A498, 17.3 µM (inactive). Further, the GI50 is 4.49 µM (inactive) in the assay on Hs-578T; 2.88 µM (inactive) with M19-MEL; 1.57 µM (inactive) in the assay with RPMI-8226; 3.82 µM (inactive) in the assay with SW-620; 4.79 µM (inactive) in the assay with SF-268; 3.72 µM (inactive) in the assay on TK-10. Moreover, the results for the GI50 with M14 and in the assay on DU-145 were 5.42 µM (inactive) and 16.5 µM (inactive), respectively.
For the compound `Cc1cc(N(CCC#N)S(=O)(=O)c2ccccc2)ccc1/C=N/c1ccc(C(=O)O)cc1`, the GI50 was > 100 µM (inactive) in the assay with MDA-N; > 100 µM (inactive) in the assay with PC-3; 13.8 µM (inactive) in the assay with SK-MEL-5; 7.96 µM (inactive) in the assay on K562; 6.7 µM (inactive) in the assay on SK-MEL-2; 20.4 µM (inactive) with KM12. Moreover, the GI50 was 6.4 µM (inactive) in the assay on CCRF-CEM; 34.1 µM (inactive) with SK-OV-3; 1.7 µM (inactive) in the assay on RXF 393; > 100 µM (inactive) with MDA-MB-435; 19.1 µM (inactive) in the assay on NCI-H460; 29.6 µM (inactive) with A498. Also, the GI50 was 56 µM (inactive) in the assay with Hs-578T; 2.75 µM (inactive) with M19-MEL; 7.43 µM (inactive) with SW-620; > 41 µM (inactive) with SF-268; 8.73 µM (inactive) in the assay with TK-10; 9.77 µM (inactive) in the assay with M14. Besides, in the assay on DU-145, the GI50 is > 100 µM (inactive).
Take `CCOC(=O)C1=C(NC)OC/C1=N\NC(=O)c1ccccc1O`: the GI50 in the assay on SK-MEL-5 is 35.8 µM (inactive); with K562, 18.6 µM (inactive); in the assay on SK-MEL-2, 12.8 µM (inactive); in the assay with KM12, 53.2 µM (inactive); in the assay on CCRF-CEM it was 14.9 µM (inactive); with SK-OV-3 it was > 100 µM (inactive). For the same compound, the GI50 with RXF 393 was 16.7 µM (inactive); in the assay on NCI-H460, 28.2 µM (inactive); in the assay on A498, > 100 µM (inactive); in the assay on M19-MEL it was 29.9 µM (inactive); with RPMI-8226, 32.3 µM (inactive); in the assay with SW-620 it was 31.8 µM (inactive). Further, the GI50 in the assay on SF-268 was 6.53 µM (inactive); with TK-10, > 100 µM (inactive); in the assay with M14, 22.5 µM (inactive).
For the compound `COc1ccc(OC(=O)CC2Cc3cc(OC)c(OC)c(OC)c3-c3ccc(SC)c(=O)cc32)cc1` (stereo not drawn), the GI50 in the assay on SK-MEL-5 was 0.378 µM (active); in the assay on K562, 0.0805 µM (active); in the assay on SK-MEL-2, 2.14 µM (inactive); with KM12 it was 0.107 µM (active); in the assay on CCRF-CEM, 0.184 µM (active); in the assay on SK-OV-3 it was 0.0277 µM (active). In addition, the concentration for 50% growth inhibition (GI50) is 0.115 µM (active) in the assay with RXF 393; 0.245 µM (active) with NCI-H460; 0.0332 µM (active) with A498; 5.74 µM (inactive) in the assay with M19-MEL; 0.128 µM (active) with RPMI-8226; 0.0783 µM (active) with SW-620. Moreover, the GI50 is 2.74 µM (inactive) in the assay with SF-268, 29.7 µM (inactive) in the assay with TK-10 and 0.34 µM (active) in the assay with M14.
As to `O=P1(NCCCl)OCCC(OO)N1CCCl` (stereo not drawn), the GI50 in the assay with MDA-N is 29.3 µM (inactive); in the assay with PC-3 it was 68.5 µM (inactive); with SK-MEL-5, 93.5 µM (inactive); in the assay with K562, 19.4 µM (inactive); with SK-MEL-2 it was 37.7 µM (inactive); with KM12, > 100 µM (inactive). In addition, the GI50 in the assay on CCRF-CEM was 9.44 µM (inactive); in the assay on SK-OV-3, > 94 µM (inactive); in the assay on RXF 393, 17.8 µM (inactive); with MDA-MB-435, 56.1 µM (inactive); with NCI-H460, 37.8 µM (inactive); in the assay on Hs-578T, 50.4 µM (inactive). Moreover, the GI50 in the assay on M19-MEL is 34.8 µM (inactive); in the assay with RPMI-8226, 7.03 µM (inactive); in the assay on SW-620, 15.7 µM (inactive); in the assay on SF-268, 35.2 µM (inactive); in the assay on TK-10 it was 20 µM (inactive); with M14 it was 21.9 µM (inactive). The GI50 in the assay on DU-145 was 54 µM (inactive).
`CCOc1ccccc1NC(=O)C(C#N)C1=C(Cl)C(=O)c2ccccc2C1=O` (stereo not drawn): the GI50 with SK-MEL-5 is 1.5 µM (inactive); in the assay with K562, 1.58 µM (inactive); in the assay with SK-MEL-2 it was 1.55 µM (inactive); in the assay with KM12, 1.72 µM (inactive); with CCRF-CEM it was 0.867 µM (active); in the assay on SK-OV-3, 26.2 µM (inactive). In addition, the GI50 was 1.97 µM (inactive) with RXF 393; 1.79 µM (inactive) in the assay on NCI-H460; 19.8 µM (inactive) with A498; 0.177 µM (active) in the assay on M19-MEL; 1.58 µM (inactive) with RPMI-8226; 1.78 µM (inactive) in the assay with SW-620. Besides, the GI50 was 2.11 µM (inactive) in the assay with SF-268, 2.22 µM (inactive) in the assay on TK-10 and 1.68 µM (inactive) in the assay on M14.
Consider `CCOc1ccccc1C=C1c2ccccc2C(=O)c2ccccc21`, for which the GI50 in the assay with SK-MEL-5 was 2.75 µM (inactive); in the assay on K562, 3.32 µM (inactive); in the assay with SK-MEL-2, 2.94 µM (inactive); in the assay on KM12, 0.673 µM (active); in the assay on CCRF-CEM, 4.32 µM (inactive); in the assay on SK-OV-3 it was 3.03 µM (inactive). Moreover, the GI50 in the assay on RXF 393 was 2.04 µM (inactive); in the assay with NCI-H460, 4.15 µM (inactive); with A498 it was 6.75 µM (inactive); in the assay on M19-MEL, 5.93 µM (inactive); in the assay with RPMI-8226 it was 3.81 µM (inactive); in the assay with SW-620 it was 3.72 µM (inactive). The values for the GI50 in the assay on SF-268, in the assay with TK-10 and in the assay with M14 were 5.07 µM (inactive), 4.56 µM (inactive) and 5.83 µM (inactive), respectively.
Turning to `O=C(Nc1cc([N+](=O)[O-])cc([N+](=O)[O-])c1)OC1C2CCC1C1OC1C2` (stereo not drawn), the GI50 in the assay with SK-MEL-5 was 31.3 µM (inactive); with K562, > 50 µM (inactive); with SK-MEL-2 it was > 50 µM (inactive); with KM12 it was 29.1 µM (inactive); in the assay on CCRF-CEM, > 50 µM (inactive); in the assay on SK-OV-3, > 50 µM (inactive). In addition, the GI50 is > 50 µM (inactive) with RXF 393; > 50 µM (inactive) in the assay with NCI-H460; > 50 µM (inactive) with A498; > 50 µM (inactive) with M19-MEL; 22.6 µM (inactive) with RPMI-8226; > 50 µM (inactive) in the assay on SW-620. For the same compound, the GI50 in the assay with SF-268 is 33.7 µM (inactive); in the assay with TK-10, > 50 µM (inactive); with M14, > 50 µM (inactive).
Take `CNC=O`: the GI50 in the assay with MDA-N, with PC-3, in the assay on SK-MEL-5, with K562, in the assay on SK-MEL-2 and in the assay with KM12 was > 10000 µM (inactive) each time. The GI50 with CCRF-CEM is > 10000 µM (inactive); in the assay with SK-OV-3, > 3980 µM (inactive); with RXF 393, > 10000 µM (inactive); in the assay with MDA-MB-435, > 10000 µM (inactive); in the assay with NCI-H460 it was > 10000 µM (inactive); in the assay with A498, > 9710 µM (inactive). Further, the GI50 in the assay on Hs-578T, with M19-MEL, in the assay on RPMI-8226, in the assay with SW-620, in the assay with SF-268 and in the assay with TK-10 was > 10000 µM (inactive) throughout. For the same compound, the GI50 in the assay on M14 and in the assay with DU-145 was > 10000 µM (inactive) each time.

The GI50 is the concentration that inhibits growth by half.
